Reference: paper PMC11035632, “Discovery of gefitinib-1,2,3-triazole derivatives against lung cancer via inducing apoptosis and inhibiting the colony formation” (Scientific Reports, 2024)

Legend:
L02 cells = assay: Cytotoxicity / survival rate in normal hepatocytes L02; assay type: cell-based; details: for Survival rate %, 48 h: L02 cells
H1299 cells [1] = assay: Flow cytometry detection of apoptosis (Annexin V-EGFP/PI); assay type: cell-based, human; details: 48 h
Protocol: H1299 cells were treated with different concentrations of 7a and 7j for 48 h. The cells were stained with Annexin-V and PI, and the proportion of apoptotic cells was detected using flow cytometry.
H1299 cells were seeded in a 6-well plate at a density of 1 × 10^5 cells/well and incubated for 24 h. On the following day, the medium was replaced with fresh medium containing 7a or 7j (2, 4 and 8 μmol/L) and cells were incubated for an additional 48 h. Cell apoptosis was detected using Annexin V-EGFP/PI apoptosis detection Kit by flow cytometry. Subsequently, 5 µl of […] Annexin V and 10 µl of PI was added to the cell suspension, gently vortexed, and incubated at room temperature in the dark for 20 min, then single-cell suspension was prepared followed by flow cytometry (BD Accuri™ C6 Plus).

H1299 cells [2] = assay: DAPI staining for cell apoptosis; assay type: cell-based, human; details: H1299, 2, 4 and 8 μmol/L, 48 h
Protocol: In order to further verify the apoptotic activity induced by 7a and 7j in lung cancer cells, H1299 cells were treated with different concentrations of compounds 7a and 7j for 48 h, followed by DAPI staining. […] As the drug concentration increased, nuclear staining intensified, and even nuclear condensation and fragmentation phenomena were observed.
H1299 (1.5 × 10^4 ~ 2 × 10^4 /well) cells were seeded in 24-well plates for 24 h, and then treated with 7a or 7j at the concentrations of 2,4 and 8 μmol/L for 48 h., the cells were fixed for 30 min at room temperature in 4% paraformaldehyde and washed 3 times in PBS. Finally, every well was stained with DAPI (10 µg/mL, C0065, Solarbio) at room temperature for 30 min, and washed at least three times in PBS. The fluorescence microscope was used to observe the morphological changes of cell nuclei.

H1299 cells [3] = assay: Wound healing assay; assay type: cell-based, human; details: 24 h
Protocol: H1299 cells were seeded in a 6-well plate, When the cell confluency reached 95%, a wound line was scratched using a 200 µl pipette tip, and then washed three times, fresh medium containing 7a or 7j (2, 4 and 8 μmol/L) was added, and the plate was incubated at 37 °C with 5% CO2. All the images were captured at 0 h and 24 h under an inverted microscope, and the quantification of scratches was analysed using Image J.

H1299 cells [4] = assay: Colony formation assay; assay type: cell-based, human; details: 7 days
From the text: The colony formation assay is an important method for evaluating the ability of adherent cells to proliferate and form colonies on a plate, and it is widely used to assess cell proliferation. We also employed the colony formation assay to further confirm that compounds 7a and 7j can inhibit the proliferation of lung cancer cells, as shown in Fig. 5. After treating lung cancer cells with low, medium, and high concentrations (1, 2, 4 μmol/L) of compounds for 7 days, the number of cell colonies was counted to analyze the proliferation inhibition rate.
H1299 cells were seeded in six-well plates at a density of 500 cells per well and treated with 7a or 7j (1, 2 and 4 μmol/L) for 7 days. Then, cells were per-fixed with 4% paraformaldehyde for 30 min, stained with 0.1% Crystal violet for 15 min, and then washed with pure water. Taking a picture after the plates were air-dry. The clone formations number was counted with Image J.

[5] = tested on: Bcl-2, caspase9, Cleaved-Caspase3, Cleaved-PARP, MMP9 in H1299 cells; assay: Western blot of apoptosis- and migration-related proteins; assay type: cell-based, human; details: H1299, 4, 8 or 16 μM, 48 h
From the text: We conducted an in-depth investigation into the mechanism of apoptosis induced by compounds 7a and 7j. The Bcl-2 protein family is located upstream of the apoptosis signaling pathway. Bcl-2 proteins play an anti-apoptotic role by inhibiting the release of cytochrome C (cyt-c) from mitochondria. Previous literature reports that many anticancer drugs induce apoptosis by downregulating Bcl-2 expression. During apoptosis, the expression of Bcl-2 is inhibited, cyt-c is released, and it binds with the apoptotic protease activation factor to form the apoptosome. This triggers a cascade reaction of Caspase family proteins, with apoptosome promoting the activation of Caspase9. Activated Caspase9 then activates Caspase3, forming the Caspase3 cleavage body, which further activates downstream PARP protein, ultimately promoting cell apoptosis. […] After treating H1299 cells with different concentrations of compounds for 48 h, cell proteins were extracted, and western blot was used to detect the expression changes of apoptosis-related proteins.
Firstly, H1299 cells were treated with different concentrations concentrations of 7a and 7j at 4, 8 and 16 μmol/L for 48 h, cells were harvested using RIPA lysate (R0010, Solarbio) and centrifuged at 12,000 rpm for 15 min at 4 °C, and then the concentration of total protein was measured and taken from the supernatant. Protein was separated by 12% SDS–polyacrylamide gel electrophoresis and transferred to nitrocellulose filter membrane. after blocking in 5% milk for 2 h, the membranes were incubated with specific primary antibody at 4 °C overnight. Next day, NC membranes were incubated for 1 h at room temperature with appropriate secondary antibodies, and then Protein bands was visualizing by chemiluminescence detection (ECL kit, Genview).

Kunming mice = assay: Acute oral toxicity test in mice; details: mouse, in vivo
From the text: SPF-grade healthy Kunming mice (weighing 20 ± 2 g) were purchased from Henan Skibbes Bio-technology Co., Ltd (Licence No.: SCXK (Yu) 2020–0005). The mice were provided free access to drinking water and adaptive feeding for 7 days.
Twenty Kunming mice (half male and half female) were randomly allocate into 4 groups: 7a-treated group (male), 7a-treated group (female), control group (male) and control group (female). The control groups were given PBS intragastric administration, while the 7a groups were given the 7a solution (400 mg/kg, respectively), once a day for 2 consecutive days. Body weight and appearance were monitored for a total period of 12 days (from the first day after treating with 7a). The mice were killed by cervical dislocation on the 12th day, and blood samples were collected for the biochemistry test. Then, we measured liver and kidney function indicators such as alanine aminotransferase (ALT), aspartate aminotransferase (AST), serum creatinine (CRE) and blood urea nitrogen (BUN) (Nanjing Jiancheng Bioengineering Institute, China). The organs (brain, heart, liver, spleen, lungs, kidneys stomach) were harvested, and fixed in 10% formaldehyde and paraffin-embedded for histological examination. Finally, these sections were stained with haematoxylin and eosin for light microscopic examination.

COc1cc2ncnc(Nc3cccc(-c4cn(Cc5cc(F)ccc5Br)nn4)c3)c2cc1OCCCN1CCOCC1 [Compound 7a]
IC50 (L02 cells; Homo sapiens, normal hepatocytes L02): 18.9 ± 1.03 µM
Survival rate %, 48 h (L02 cells; 2 μM): 95.37 ± 2.98%
Survival rate %, 48 h (L02 cells; 4 μM): 71.97 ± 2.33%
Survival rate %, 48 h (L02 cells; 8 μM): 66.89 ± 1.52%
Survival rate %, 48 h (L02 cells; 16 μM): 63.25 ± 1.25%
Survival rate %, 48 h (L02 cells; 32 μM): 32.43 ± 0.95%
total apoptotic cell proportion (H1299 cells [1]; H1299, 2 μmol/L): 19.03 ± 2.10%
total apoptotic cell proportion (H1299 cells [1]; H1299, 4 μmol/L): 28.73 ± 1.12%
total apoptotic cell proportion (H1299 cells [1]; H1299, 8 μmol/L): 50.1 ± 2.91%
apoptotic morphology by DAPI staining (H1299 cells [2]): exhibited typical apoptotic features
migration closure rate (H1299 cells [3]; H1299, 2 μmol/L): 65.16 ± 7.88%
migration closure rate (H1299 cells [3]; H1299, 4 μmol/L): 50.12 ± 2.99%
migration closure rate (H1299 cells [3]; H1299, 8 μmol/L): 23.54 ± 3.65%
formation of H1299 cell colonies (H1299 cells [4]; 1 μmol/L): markedly inhibit
colony formation (H1299 cells [4]; H1299, 4 μmol/L): almost completely suppressed
Bcl-2 protein expression level [5]: decrease
Cleaved-Caspase3 protein expression level [5]: increased
Cleaved-PARP protein expression level [5]: increased
MMP9 protein expression [5]: downregulated
caspase9 protein expression level [5]: decrease
acute toxicity in mice (Kunming mice): low toxicity
